Measurements reported in paper PMC6267684, “Pharmacokinetic evaluation of the PNC disassembler metarrestin in wild-type and Pdx1-Cre;LSL-Kras^G12D/+;Tp53^R172H/+ (KPC) mice, a genetically engineered model of pancreatic cancer” (Cancer Chemotherapy and Pharmacology, 2018).

Key:
[1] = Freeze-thaw stability in mouse plasma; format: in vitro ADME; conditions: after three freeze-thaw cycles
Description: Bioanalytical method validation was performed in mouse plasma and mouse liver. The linear calibration range for metarrestin was 1.0–1000 ng/mL for plasma and 5.0–20,000 ng/g for liver homogenate. The lower limit of quantitation of the assay was 1.0 ng/mL in plasma and 5.0 ng/g in liver homogenate. The accuracy of calibration standards was between within 8% of the nominal values. Intra-assay variance and deviation from nominal values were calculated at low quality-control (LOQ, 1.0 ng/mL plasma and 5.0 ng/g liver), middle quality-control (MQC, 10.0 ng/mL and 500 ng/g), and high quality-control (HQC, 1000 ng/mL and 20,000 ng/g) levels for six replicates, each of the same analytical run (Suppl. Tables 1, 2). The variance of the QC samples (CV%, […]) ranged from 1.0 to 5.1% and the deviation was between 3 and 6% from nominal values. No endogenous interference was found at the retention time for metarrestin and internal standard as verified by testing control blank plasma and liver homogenate. Metarrestin was stable in mouse plasma after three freeze-thaw cycles.

[2] = Steady-state PK in KPC mice fed metarrestin-infused chow; format: in vivo; conditions: 25 mg/kg PO chow MD
Description: Metarrestin [ML-246; Trans-4-(7-benzyl-4-imino-5,6-diphenyl-4,7-dihydro-3H-pyrrolo[2,3-d]pyrimidin-3-yl) cyclohexanol] was manufactured in-house using the previously described 4-step synthesis sequence. Purity (> 98%) was determined by LC-MS/MS and 1H-NMR analysis as previously reported. To enhance bioavailability, the drug was micronized to particles of uniform small size with greater surface area using a technique proprietary to Crititech Inc. (Lawrence, Kansas). In brief, the drug substance was dissolved in organic solvent dichloromethane and precipitated using compressed super critical carbon dioxide as the anti-solvent. The produced material had 90% particles with a diameter less than 1.131 µm with a mean diameter of 0.829 µm (Suppl. Figure 1). […]
An ultra-performance liquid chromatography–tandem mass spectrometry (UPLC–MS/MS) method was developed to determine metarrestin concentrations in plasma and tissue samples. […] Data were analyzed using MassLynx V4.1.
The pharmacokinetic parameters were calculated using the non-compartmental approach (Models 200 and 201) of the pharmacokinetic software Phoenix WinNonlin, version 6.4 (Certara, St. Louis, MO). The area under the plasma concentration vs time curve (AUC) was calculated using the linear trapezoidal method. […]

With `N=c1c2c(-c3ccccc3)c(-c3ccccc3)n(Cc3ccccc3)c2ncn1[C@H]1CC[C@H](O)CC1` [metarrestin, Trans-4-(7-benzyl-4-imino-5,6-diphenyl-4,7-dihydro-3H-pyrrolo[2,3-d]pyrimidin-3-yl) cyclohexanol] the “stability in mouse plasma” value [1] was “stable” and the “intratumor AUC0–24h” value [2] was 396,000 h ng/mL.
